The results in this text go back to ChEMBL document CHEMBL4177521, “Therapeutic Potential of Fatty Acid Amide Hydrolase, Monoacylglycerol Lipase, and N-Acylethanolamine Acid Amidase Inhibitors” (J Med Chem, 2017).

The term IC50 denotes the concentration that gives 50% inhibition. By half-life is commonly meant the time needed for the level to fall by half in the phase considered. The low end stands for fast loss, the high end for slow loss. One may read the Ki as the dissociation constant of the complex between target and ligand, obtained from inhibition or displacement.

The target in data set [1] is T1, Monoglyceride lipase (Rattus norvegicus, UniProt Q8R431).
T1 sequence (Q8R431 whole entry): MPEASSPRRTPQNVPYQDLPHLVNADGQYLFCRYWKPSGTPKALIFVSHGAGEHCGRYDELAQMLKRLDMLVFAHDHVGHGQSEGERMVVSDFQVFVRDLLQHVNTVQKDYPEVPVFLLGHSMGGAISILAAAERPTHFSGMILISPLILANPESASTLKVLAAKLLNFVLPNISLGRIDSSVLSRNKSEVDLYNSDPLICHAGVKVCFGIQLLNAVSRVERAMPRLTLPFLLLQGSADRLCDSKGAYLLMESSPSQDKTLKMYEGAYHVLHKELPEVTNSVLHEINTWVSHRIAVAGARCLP
The data set can be described thus: Inhibition of recombinant rat N-terminal histidine tagged MAGL expressed in Escherichia coli Rosetta 2 (DE3) pLysS cells preincubated for 10 mins followed by 2-OG substrate addition after 10 mins by LC/MS analysis.

Data set [2] has as its target T2, Fatty-acid amide hydrolase 1 (Rattus norvegicus, UniProt P97612).
T2 sequence (P97612 whole entry): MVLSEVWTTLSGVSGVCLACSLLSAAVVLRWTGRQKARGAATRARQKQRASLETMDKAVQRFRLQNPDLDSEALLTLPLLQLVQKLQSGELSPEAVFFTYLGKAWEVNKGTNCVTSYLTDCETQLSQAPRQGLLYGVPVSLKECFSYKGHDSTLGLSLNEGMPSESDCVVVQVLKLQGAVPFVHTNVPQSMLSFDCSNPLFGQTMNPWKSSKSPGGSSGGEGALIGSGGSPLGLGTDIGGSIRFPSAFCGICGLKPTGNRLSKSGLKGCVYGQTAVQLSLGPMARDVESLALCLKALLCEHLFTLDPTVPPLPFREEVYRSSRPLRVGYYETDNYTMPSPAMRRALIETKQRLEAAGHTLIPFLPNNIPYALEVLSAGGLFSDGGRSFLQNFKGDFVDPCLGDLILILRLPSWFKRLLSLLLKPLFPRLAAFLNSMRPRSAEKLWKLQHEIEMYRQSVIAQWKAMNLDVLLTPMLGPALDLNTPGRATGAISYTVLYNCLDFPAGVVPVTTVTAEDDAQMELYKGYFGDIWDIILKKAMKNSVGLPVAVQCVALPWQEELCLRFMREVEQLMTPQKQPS
The data set is described as follows: Inhibition of FAAH in Wistar rat brain membranes using [3H]-anandamide as substrate preincubated for 10 mins followed by substrate addition measured after 4 mins by liquid scintillation counting method. In kind it is cell membranes, Membrane.

Data set [3] deals with T1, Monoglyceride lipase. The data set can be described thus: Inhibition of rat MAGL.
In data set [4] the target is T3, Monoglyceride lipase (Mus musculus, UniProt O35678).
T3 sequence (O35678 whole entry): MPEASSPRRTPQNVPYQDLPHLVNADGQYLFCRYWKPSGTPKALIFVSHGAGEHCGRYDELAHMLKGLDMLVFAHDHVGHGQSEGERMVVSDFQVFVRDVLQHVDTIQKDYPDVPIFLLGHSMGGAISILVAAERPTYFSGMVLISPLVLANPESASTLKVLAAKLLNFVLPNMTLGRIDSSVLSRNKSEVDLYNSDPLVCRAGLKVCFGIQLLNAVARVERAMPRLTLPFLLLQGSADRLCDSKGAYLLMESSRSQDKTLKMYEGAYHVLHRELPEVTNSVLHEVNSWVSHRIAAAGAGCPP
The data set can be described thus: Inhibition of mouse MAGL.

Data set [5] addresses T4, N-acylethanolamine-hydrolyzing acid amidase (Homo sapiens, UniProt Q02083).
T4 sequence (Q02083 whole entry): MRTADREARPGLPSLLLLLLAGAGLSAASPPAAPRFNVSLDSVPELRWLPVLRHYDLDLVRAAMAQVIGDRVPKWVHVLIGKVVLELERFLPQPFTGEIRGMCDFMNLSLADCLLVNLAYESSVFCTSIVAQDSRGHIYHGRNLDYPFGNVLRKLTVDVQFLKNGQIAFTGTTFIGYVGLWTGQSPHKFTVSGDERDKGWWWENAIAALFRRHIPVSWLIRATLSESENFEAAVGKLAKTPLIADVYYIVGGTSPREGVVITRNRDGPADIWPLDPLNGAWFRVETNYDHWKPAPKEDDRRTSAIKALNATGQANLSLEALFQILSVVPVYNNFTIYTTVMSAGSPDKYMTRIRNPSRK
The data set is described as follows: Inhibition of recombinant human NAAA expressed in HEK293 cells preincubated for 10 mins followed by PAMCA substrate addition after 30 mins by fluorescence assay. The data set is classed as cell-based.

Data set [6] addresses T3, Monoglyceride lipase. The data set can be described thus: Inhibition of mouse MAGL preincubated for 30 mins followed by FP-Rh addition after 30 mins by gel-based ABPP assay.
Data set [7] concerns the target T5, Monoglyceride lipase (Homo sapiens, UniProt Q99685).
T5 sequence (Q99685 whole entry): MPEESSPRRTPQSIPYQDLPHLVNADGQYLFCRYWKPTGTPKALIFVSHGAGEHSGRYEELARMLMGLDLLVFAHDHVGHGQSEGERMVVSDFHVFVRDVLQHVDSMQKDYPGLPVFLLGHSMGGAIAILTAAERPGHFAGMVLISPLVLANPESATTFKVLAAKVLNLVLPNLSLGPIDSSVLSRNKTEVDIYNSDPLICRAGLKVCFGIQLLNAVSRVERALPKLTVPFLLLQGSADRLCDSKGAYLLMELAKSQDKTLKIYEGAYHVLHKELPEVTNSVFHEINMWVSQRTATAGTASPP
The data set can be described thus: Inhibition of recombinant human full length MAGL expressed in HEK293 cells preincubated for 30 mins followed by FP-Rh addition after 30 mins by gel-based ABPP assay. The data set is classed as cell-based.

Data set [8] deals with T1, Monoglyceride lipase. The data set is described as follows: Inhibition of rat MAGL preincubated for 30 mins followed by FP-Rh addition after 30 mins by gel-based ABPP assay.
Data set [9] deals with T2, Fatty-acid amide hydrolase 1. The data set can be described thus: Inhibition of Sprague-Dawley rat brain FAAH preincubated for 10 mins followed by [3H]-anandamide substrate addition after 30 mins by liquid scintillation counting method.
The target in data set [10] is T1, Monoglyceride lipase. The data set can be described thus: Inhibition of recombinant rat MAGL expressed in Escherichia coli using 2-AG as substrate.
Data set [11] in a line: Half life in rat plasma at 3 uM by LC/MS analysis. The data set is classed as ADME, cell-free.
In data set [12] the target is T5, Monoglyceride lipase. The data set can be described thus: Inhibition of recombinant human N-terminal His6-tagged and C-terminal Strep-tagged MAGL expressed in Escherichia coli Rosetta using [3H]2-OG as substrate after 10 mins by liquid scintillation counting method.
Data set [13] deals with T1, Monoglyceride lipase. The data set can be described thus: Inhibition of rat cerebellar membranes MAGL-like activity preincubated for 30 mins followed by 2-AG substrate addition after 90 mins by HPLC analysis. More on the design: species or system Cerebellum, Membrane.
In data set [14] the target is T2, Fatty-acid amide hydrolase 1. The data set is described as follows: Inhibition of rat FAAH assessed as reduction in [14C]oleamide conversion to oleic acid by Lineweaver-Burk plot analysis.
Data set [15] has as its target T6, Fatty-acid amide hydrolase 2 (Homo sapiens, UniProt Q6GMR7).
T6 sequence (Q6GMR7 whole entry): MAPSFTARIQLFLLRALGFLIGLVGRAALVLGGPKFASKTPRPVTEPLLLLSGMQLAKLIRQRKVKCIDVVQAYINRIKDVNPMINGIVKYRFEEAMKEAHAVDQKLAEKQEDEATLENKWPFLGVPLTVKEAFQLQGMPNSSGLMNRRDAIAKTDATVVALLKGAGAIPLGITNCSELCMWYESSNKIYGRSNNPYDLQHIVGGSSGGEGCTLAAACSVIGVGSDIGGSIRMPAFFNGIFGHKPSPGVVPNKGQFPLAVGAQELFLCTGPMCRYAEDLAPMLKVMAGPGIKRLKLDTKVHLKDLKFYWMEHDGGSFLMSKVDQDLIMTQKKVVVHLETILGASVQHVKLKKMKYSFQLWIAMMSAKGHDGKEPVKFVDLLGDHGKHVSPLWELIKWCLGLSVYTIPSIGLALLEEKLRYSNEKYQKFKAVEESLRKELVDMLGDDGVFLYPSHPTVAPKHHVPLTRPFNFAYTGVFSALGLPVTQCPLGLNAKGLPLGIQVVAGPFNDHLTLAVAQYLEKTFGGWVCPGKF
The data set is described as follows: Inhibition of recombinant human N-terminal FLAG-tagged/C-terminal Myc-His6 tagged FAAH2 (32 to 579 residues) expressed in COS7 cell membranes. The data set is classed as cell-based.

On to `CCCCCCCC/C=C\CCCCCCCCn1sccc1=O`, for which, at Monoglyceride lipase [1], the IC50 is 43 nM.

In turn, `O=C(NC1CCCCC1)Oc1cccc(-c2ccccc2)c1` yielded an IC50 in [2] of 25.6 nM.

Regarding `O=C(N1CCN(C(c2ccc(F)cc2)c2ccc(F)cc2)CC1)n1cncn1`, the 50% inhibitory concentration (IC50) against Monoglyceride lipase [3] stood at 1.1 nM; against Monoglyceride lipase [4], 0.219 nM.

Turning to `CCCCCCCCCCC(=O)N[C@H]1CNC1=O`, in data set [5] (hek293), the IC50 was found to be 100 nM.

As to `O=C(OC(C(F)(F)F)C(F)(F)F)N1CCN(Cc2cccc(Oc3ccccc3)c2)CC1`, the results for the IC50 against Monoglyceride lipase [6], on Monoglyceride lipase [7] and against Monoglyceride lipase [8] were 7.6 nM, 3.7 nM and 14 nM, respectively.

Consider `O=C(NC1CCCCC1)OCc1cn(-c2ccccc2)nn1`, for which the half-maximal inhibitory concentration (IC50) in data set [9] came to 381 nM.

In the case of `CCCCCCCCn1sc2ccccc2c1=O`, the IC50 at Monoglyceride lipase [1] came out at 20 nM.

In the case of `COC(=O)[C@]1(C)CC[C@]2(C)CC[C@]3(C)C4=CC=C5C(=CC(=O)C(O)=C5C)[C@]4(C)CC[C@@]3(C)C2C1` (stereo partly drawn), on Monoglyceride lipase [10], the IC50 turned out to be 93 nM.

`CC(C)(C)[C@@H]1OC(=O)[C@H]1NC(=O)OCCCCCc1ccccc1` returned a half-life at 3 µM in data set [11] of over 5 min. Also, in data set [5], the IC50 stood at 234 nM.

In the case of `CC(C)(C)[C@@H]1OC(=O)[C@@H]1NC(=O)OCCCCCc1ccccc1`, the IC50 in data set [5] turned out to be 302 nM.

Consider `CCCCCCCCCC(=O)N[C@H]1CNC1=O`, for which the IC50 in data set [5] (hek293) was 240 nM.

Regarding `COc1ccc(Cn2cc(CNC(=O)OCc3cn(Cc4cccc(OC)c4)nn3)nn2)cc1`, the half-maximal inhibitory concentration (IC50) in [9] turned out to be 5.8 nM.

As to `CCN(CC)C(=S)SSC(=S)N(CC)CC`, the IC50 on Monoglyceride lipase [12] is 360 nM.

In the case of `O=C(Oc1ccc([N+](=O)[O-])cc1)N1CCN(C(c2ccc(F)cc2)c2ccc(F)cc2)CC1`, the IC50 against Monoglyceride lipase [3] worked out at 1800 nM; against Monoglyceride lipase [4], 282 nM.

With `O=C1C=CC(=O)N1c1ccc2ccc3cccc4ccc1c2c34`, the IC50 against Monoglyceride lipase [13] was 9200 nM.

Turning to `O=C(CCCCCCCCc1ccccc1)c1nc2ncccc2o1`, the Ki in [14] was determined as 0.52 nM.

`O=C(OC(C(F)(F)F)C(F)(F)F)N1CCC(C(O)(c2ccc3c(c2)OCO3)c2ccc3c(c2)OCO3)CC1`: the concentration for half-maximal inhibition (IC50) worked out at 15 nM at Monoglyceride lipase [6] and 43 nM at Monoglyceride lipase [8].

As to `O=C(NC1CCCCC1)OCc1ncn(Cc2ccccc2)n1`, in [9], half-maximal inhibition (IC50) required 51500 nM.

Take `O=C(CCCCc1ccccc1)c1nc2ncccc2o1`: the Ki in data set [14] was found to be 0.3 nM.

Turning to `CCCCCCCCn1sccc1=O`, the IC50 at Monoglyceride lipase [1] worked out at 88 nM.

On to `CC(C)=CCC[C@@H](C)[C@@H]1CCC[C@]2(C)C3=C(CC[C@@]12C)[C@@]1(C)CC[C@H](O)C(C)(C)[C@@H]1CC3`, for which the IC50 on Monoglyceride lipase [10] is 315 nM.

For `NC(=O)c1cccc(-c2cccc(OC(=O)NC3CCCCC3)c2)c1` [URB-597], the IC50 in data set [15] was found to be 5 nM.
